Key:
[1] = in vitro BeWo transport model (placental transfer); conditions: human
Protocol: (§1) To study placental transfer of test compounds, BeWo transport experiments were performed as described previously (Li et al. [2013]). Briefly, BeWo b30 cells (passages 27–45) were cultured in DMEM (Zwijndrecht, The Netherlands), supplemented with 10 % (v/v) heat-inactivated FCS (HyClone-Perbio, Etten-Leur, The Netherlands), 10,000 U/ml penicillin, 10 mg/ml streptomycin and 2 mM L-glutamine. The cells were seeded at a density of 1 × 10^5 cells/cm^2 on transwell® polycarbonate membranes (12 mm diameter, 0.4 μm pore size) (VWR International BV, Amsterdam, The Netherlands) coated with human placental collagen. The medium (0.5-ml apical compartment, 1.5-ml basolateral compartment) was replaced daily. At day 6 postseeding, the BeWo b30 cell layers were used for transport experiments. The barrier-forming capacity of the BeWo cell layers was evaluated by measuring the transepithelial electrical resistance (TEER) of the cell monolayer using a Millicell ERS-2 Volt-Ohm Meter (Millipore, USA) at day 6 postseeding as described previously (Li et al. [2013]). Only the cell layers showing TEER values between 80 and 100 Ω cm^2 were used for transport experiments.
(§2) Transport experiments were initiated by adding 0.5 ml of transport buffer Hank’s balanced salt solution (HBSS, Invitrogen, Breda, The Netherlands) containing the test compound, being 0594, 0595, 0596, 0599, 0600 and 0618, dissolved in DMSO (final solvent concentration 0.5 % DMSO), at concentration of 50 μM, to the apical compartment and 1.5 ml transport buffer to the basolateral compartment. Subsequently, the plate was incubated in a humidified atmosphere with 5 % CO2 at 37 °C. After 15, 30, 60 and 90 min, a sample of 0.2 ml was taken from the basolateral compartment and replaced by an equal volume of transport buffer. At the end of each experiment, a 0.2-ml sample was also taken from the apical compartment. Subsequently, the filters with the BeWo b30 cell layers were washed three times with PBS, cut out of the insert, dissolved in 0.25 ml 65 % (v/v) methanol and sonificated for 15 min in a Bandelin Sonorex RK100 (Berlin, Germany) in order to determine the amount of compound accumulated in the cells. After each experiment, mass balance calculations were performed. In each transport study, amoxicillin and antipyrine were included as control and reference compounds. Amoxicillin transport was included to assess for monolayer integrity since it is a compound known to be transported only to a limited extent across the placenta, whereas antipyrine was included as a control for optimal transport and a reference compound to enable calculation of relative transport rates (Li et al. [2013]). The transport of the six test compounds, as well as the reference compounds amoxicillin and antipyrine, through the permeable membrane of the transwell filter in the absence of BeWo cells was determined as well. […] For each test compound, three independent experiments were performed, with three technical replicates per experiment.
(§3) Samples were analyzed using high-performance liquid chromatography (HPLC) to quantify the amount of test compound in order to determine the transport rate and to perform mass balance calculations. The HPLC system used consisted of a Waters (Milford, MA) 600 controller and a 600 pump, equipped with a photodiode array detector set to record absorption of wavelengths between 200 and 400 nm. A Waters 717 plus autosampler was used for sample injection. The temperature of the autosampler was kept at 7 °C.
(§4) For analysis of all compounds, 50 μl sample was injected to a C18 5 μm reverse-phase column (150 mm × 4.6 mm I.D.) with a guard column (7.5 mm × 4.6 mm I.D.) (Alltech, Bergen op Zoom, The Netherlands). The mobile phase used for analysis of all the test compounds consisted of (A) 0.1 % trifluoroacetic acid in nanopure water and (B) HPLC-grade acetonitrile. Elution was at a flow rate of 0.8 ml/min, starting at 22 % B with a linear increase to 100 % B in 8 min.

BeWo b30 cell layers = experiment: in vitro BeWo transport model (placental transfer)
Protocol: as §1, §2, §3, §4

Row | Intracellular accumulation (% of added amount) (BeWo b30 cell layers; BeWo cells, 50 μM (25 nmol) apical, at 90 min) | Compound | Papp at 30 min, 50 μM [1] [×10⁻⁶ cm/s] | Intracellular accumulation (% of added amount) (BeWo b30 cell layers; human, 90 min, 50 μM) | Relative Papp value (BeWo b30 cell layers; human, not told, 50 μM)
1 | 0 % of added amount | CC1(C)S[C@@H]2[C@H](NC(=O)[C@H](N)c3ccc(O)cc3)C(=O)N2[C@H]1C(=O)O [Amoxicillin, amoxicillin, reference compound] | 6.5 ± 0.2 |  | 
2 |  | Cc1cc(=O)n(-c2ccccc2)n1C [Antipyrine, antipyrine, reference compound] | 38.9 ± 3 | 0 % of added amount | 1.00
